For the series, the system named is DUX4-fl mRNA. In words: DUX4 / DUX4-fl mRNA expression by qPCR in FSHD myotubes. The series is classed as cell-based, human. As to the method:
In a 6 well plate, 450 μL Buffer RLT Plus was added. Lysate was homogenized by transfer the lysate to a gDNA Eliminator spin column placed in a 2 mL collection tube (supplied), centrifuged for 30 s at ≥8000×g (≥10,000 rpm) and discarded column while saving the flow-through. Then 250 μL of Ethanol (35% final) was added to the flow-through, and mixed well by pipetting, not centrifuged. Then samples were transferred, including any precipitate that may have formed, to an RNeasy MinElute spin column placed in a 2 mL collection tube (supplied). Then centrifuged for 15 s at ≥8000×g. Flow-through was discarded or collected for Protein precipitation. 700 μL Buffer RW1 to the RNeasy MinElute spin column was added then centrifuge for 15 s at ≥8000×g. and discard the flow-through. DNAse treatment was performed by gently mixing 10 μL DNAseI with 70 μL of Buffer RDD and added directly to the column, incubated at room temperature for 20 min. Then, 700 μL Buffer RW1 (per manufactures specification) to the RNeasy MinElute spin column, centrifuged for 15 s at >8000×g. and the flow-through discarded. 500 μL Buffer RPE was added to the RNeasy MinElute spin column centrifuged for 15 s at ≥8000×g and discarded the flow-through. 500 μL of 80% ethanol was added to the RNeasy MinElute spin column, centrifuged for 2 min at ≥8000×g to wash the spin column membrane and the collection tube was discarded with the flow-through. The RNeasy MinElute spin column was placed in a new 2 mL collection tube (supplied) centrifuged at full speed for 5 min to dry the membrane and the collection tube was discarded with the flow through. RNeasy MinElute spin column was placed in a new 1.5 mL collection tube (supplied). 14 μL RNase-free water was added directly to the center of the spin column membrane, and centrifuged for 1 min at full speed to elute the RNA. You should end up with about 12 μL of eluted RNA.
cDNA preparation. […] 10 seconds then read plate on QuantStudio7 as per manufactures instruction (Thermo). […]

2 compounds from US10342786B2, “P38 kinase inhibitors reduce DUX4 and downstream gene expression for the treatment of FSHD” (Fulcrum Therapeutics, Inc., priority 2017, dated 2019) can be followed below.

For `Cn1c(=O)c(Oc2ccc(F)cc2F)cc2cnc(NC(CCO)CCO)nc21` [Pamapimod, 6-(2,4-difluorophenoxy)-2-((1,5-dihydroxypentan-3-yl)amino)-8-methylpyrido[2,3-d]pyrimidin-7(8H)-one], the “DUX4-fl mRNA levels normalized to POLR2A mRNA” value (10, 100, and 1000 nM, FSHD myotubes, compared to DMSO) is “dose-dependently reduced”.
With “FTX-2: DUX4 sequence-directed antisense oligonucleotide purchased from Exiqon, CAGCGTCGGAAGGTGG (SEQ ID NO: 1) (listed as DNA, chemistry not given here)”, the DUX4 expression result was “reduced amounts” (1 μM ASO, FSHD myotubes vs DMSO) and “dose dependent reduction” (different dilutions of the ASO, FSHD myotubes).
